Data set [1] in a line: Singlet oxygen quenching (RNO bleaching at 440 nm, methylene blue sensitizer, UV A). The settings on record: for Singlet oxygen scavenging behaviour: FIG. 3; for IC50% (μg/ml), singlet oxygen quenching ability: RNO bleaching at 440 nm, 20 min UV A. Format: biochemical. The method, then: A solution of N,N-dimethyl-p-nitrosoaniline (RNO) and histidine and a known sensitizer (e.g. methylene blue) is exposed to UV A. Singlet oxygens generated under UV A induce a bleaching of RNO which can be measured spectrophotometrically at 440 nm. The efficiency of test products in terms of singlet oxygen scavenging is measured at 440 nm for various concentrations.
All measurements were performed at room temperature (24 C) with a Beckman Coulter DU-640 spectrophotometer at a scan speed of 120 nm/min with a spectral range from 300 to 700 nm.
150, Sigma-Aldrich • RNO (19 mg) dissolved in 50 ml of Buffer solution subsequent dilution by factor 25 in de-ionized water. • L-Histidine Solution (40 mM) • Mol. Wt. […] 320, Sigma-Aldrich • 5 mg are dissolved in distilled water (100 ml) subsequent dilution at 6.4 ml in 25 ml of de-ionized water. b) Antioxidant Solutions: • Ascorbic acid (0.5 mM) • Mol. Wt.
The stock solutions were added in an orderly manner with quantities according to the table below as to obtain a final total volume of 4.5 ml for each preparation. First, the RNO buffered solution was taken, followed by addition of L-Histidine and the sensitizer Methylene Blue. Then, the antioxidant solution was added and topped off to 4.5 ml total volume with buffer solution. This preparation was exposed to UV A radiation (˜35 W/m^2) for 20 min to generate singlet oxygens. The light absorption spectra were then recorded and the optical density measured at 440 nm (corresponding to RNO). The inverse of the light absorbances at 440 nm is then plotted as a function of the concentration in antioxidant.

A short description of data set [2]: Photostability of β carotene in lotion under sun simulator. The following applies: stabilizer 0.2%, β carotene 0.02%.
Data set [3] in a line: Color change of Menthyl anthranilate in solution under sun simulator. The following applies: menthyl anthranilate:stabilizer 1:5, FIG. 2. Format: physicochemical. The method, then: (§1) In Solution: Solutions in ethanol are prepared at respective concentrations of photosensitive materials and photostabilizer (typically 1:1 to 1:5 in weight %). Solutions are exposed to a sun simulator (754 W/m^2, 2 MED/h,) for various durations and light absorption spectra recorded for each sample at given times. The amount of photosensitive materials remaining in solution is calculated from the ratio of their maximal absorption band (λmax), before and after irradiation.
Color Change of Menthyl Anthranilate Under Sun Simulator With and Without Diethylhexyl Syringylidene Malonate in Solution

A short description of data set [4]: Photostability of Guaiazulene in a shampoo formulation under sun simulator. Format: physicochemical. The settings on record: stabilizer 0.1% in the shampoo. The method, then: In Formulation: Samples are prepared as ultrathin films between two quartz plates as to obtain a minimum of 90% light transmission over the entire spectrum range of non absorbing chromophores. For example, ingredients which absorb only in the UV will be tested in formulation to obtain a minimum of 90% light transmission over the visible range. Samples are then irradiated under sun simulator (754 W/m^2, typically 2 MED/h) for given times and light absorption spectra recorded at each time. The remaining percentage of photosensitive compounds is calculated from the light absorption maximum (λmax) of the corresponding peak in the absorption spectrum.
(§2) Amount of energy: 10 mJoules/Cm^2=1 MED
Formulation Used for the Study Described in Example-5
Procedure: Combine A and heat to 70–75° C., except for U-care JR-400. Disperse U-care JR-400 in A under agitation. Add ingredients of phase B one by one at 70° C. Add phase C at 40° C. Premix Phase D and add to batch at 40° C. At 35° C. add phase E. Adjust pH (˜6.5) and viscosity with phase F.

A short description of data set [5]: Photostabilization of natural Tocopherols in ethanolic solution under sun simulator. In kind it is physicochemical. The following applies: stabilizer 0.05%. As to the method: as §1, §2
Photostabilization Results of Natural Tocopherols in Ethanolic Solution

Data set [6] is described as follows: Photostabilization and color change of Vanillin in ethanolic solution under sun simulator. In kind it is physicochemical. The following applies: for Color change of Vanillin in solution (new light absorption band around 390 nm, yellow color): with and without stabilizer, FIG. 1; for Relative absorption of Vanillin at 281 nm (%): ethanolic solution. The method, then: (§3) In Solution: Solutions in ethanol are prepared at respective concentrations of photosensitive materials and photostabilizer (typically 1:1 to 1:5 in weight %). […] The amount of photosensitive materials remaining in solution is calculated from the ratio of their maximal absorption band (λmax), before and after irradiation.
as §2
Photostabilization Results of Vanillin in Ethanolic Solution
Color Change of Vanillin in Solution Under Sun Simulator With and Without Diethylhexyl Syringylidene Malorate in Solution
Photostabilization Results of Vanillin in Ethanolic Solution with isoamyl-alpha-acetyl-3,5-dimethoxy-4-hydroxy cinnamate

Data set [7] can be described thus: Photostabilization of Guaiazulene in ethanolic solution under sun simulator. Format: physicochemical. The settings on record: for Relative absorption of Guaiazulene at 600 nm (%): ethanolic solution, sun simulator. The method, then: as §3, §2
Photostabilization Results of Guaiazulene in Ethanolic Solution

The nature of data set [8]: Photostability of β carotene in lotion at room temperature, visible light, one month. The following applies: room temperature storage.

As for `O=C1O[C@H]([C@@H](O)CO)C(O)=C1O` [Ascorbic acid, reference compound], in data set [1], the “Singlet oxygen scavenging behaviour” value is reported as “pro-oxidant” and the “IC50% (μg/ml), singlet oxygen quenching ability” value (“IC50% (μg/ml)” for short) is given as “Pro-oxidant”.

Take `CCCCC(CC)COC(=O)C(=Cc1cc(OC)c(O)c(OC)c1)C(=O)OCC(CC)CCCC` (stereo not drawn) [Diethylhexyl syringylidene malonate, Di-2-ethylhexyl 3,5 dimethoxy 4 hydroxy benzylidene malonate]: the “Effect of stabilizer on photostability of β carotene in lotion” value in data set [2] is “clear improvement in the photostability of β carotene”. For the same compound, in data set [1], the “Singlet oxygen scavenging behaviour” value is “efficient singlet oxygen scavengers, better than Vitamin E” and the “IC50% (μg/ml)” value was determined as 80 µg/mL. For the same compound, in data set [3], the “Color change of Menthyl anthranilate (new light absorption band around 390 nm, yellow color)” value was “prevents any alteration/degradation of the fragrance”. Further, in data set [4], the “Effect of stabilizer on photostability of Guaiazulene in shampoo” value was “clear improvement in the photostability of Guaiazulene”. In data set [5], the “Effect of stabilizer on photostability of Tocopherols in solution” value is “clear improvement in the photostability of Tocopherols”. For the same compound, the “Color change of Vanillin in solution (new light absorption band around 390 nm, yellow color)” value in data set [6] was “does not appear”.

In the case of `COc1cc(C=C(C(C)=O)C(=O)OCCC(C)C)cc(OC)c1O` [Eusolex ASA ™, Isoamyl alpha acetyl-3,5 dimethoxy 4 hydroxy benzylidene malonate], in data set [1], the “Efficiency as an antioxidant (ranking)” value was “best efficiency as an antioxidant”; the “Singlet oxygen scavenging behaviour” value is given as “efficient singlet oxygen scavengers, better than Vitamin E”; the “IC50% (μg/ml)” value amounted to 61 µg/mL.

For `CCOS(=O)(=O)[O-].CCOS(=O)(=O)[O-].CC[N+](C)(C)CCCNC(=O)C(=Cc1cc(OC)c(O)c(OC)c1)C(=O)NCCC[N+](C)(C)CC` [Eusolex HP ™, Bis-N-[3′-(N′,N′-Dimethylethylammonium)propyl]-3,5-dimethoxy-4-hydroxy benzylidene malonamide bis ethyl sulfate], in data set [1], the “Singlet oxygen scavenging behaviour” value was “efficient singlet oxygen scavengers, better than Vitamin E” and the “IC50% (μg/ml)” value was 104 µg/mL.

`Cc1ccc(C(C)C)cc2c(C)ccc1-2` [Guaiazulene]: the “Relative absorption of Guaiazulene at 600 nm (%)” value in data set [7] (0 MED) is on record as 100%; in data set [7] (2 MED), 83%; in data set [7] (5 MED) it was 43%; in data set [7] (10 MED), 6%. The “Guaiazulene lost when exposed to solar simulator” value in data set [7] (total energy of 100 mJ/cm^2) was approximately 90%.

Regarding `CC1CCC(C(C)C)C(OC(=O)c2ccccc2N)C1` (stereo not drawn) [Menthyl anthranilate], the “Color change of Menthyl anthranilate (new light absorption band around 390 nm, yellow color)” value in data set [3] is recorded as “a new light absorption band for menthyl antranillate appears around 390 nm”.

Take `Cc1c(C)c2c(c(C)c1O)CCC(C)(C(=O)O)O2` (stereo not drawn) [Trolox C, S-hydroxy-tetramethylchroman carboxylic acid, reference compound]: the “IC50% (μg/ml)” value in data set [1] is 88 µg/mL.

For the compound `COc1cc(C=O)ccc1O` [Vanillin], the “Relative absorption of Vanillin at 281 nm (%)” value in data set [6] (0 MED) is given as 100%; in data set [6] (2 MED), 45%; in data set [6] (5 MED), 40%; in data set [6] (10 MED), 36%. For the same compound, the “Color change of Vanillin in solution (new light absorption band around 390 nm, yellow color)” value in data set [6] was “a new light absorption band appears around 390 nm”.

Take `CC1=C(/C=C/C(C)=C/C=C/C(C)=C/C=C/C=C(C)/C=C/C=C(C)/C=C/C2=C(C)CCCC2(C)C)C(C)(C)CCC1` [β-carotene]: the “Stability of β-carotene in ambient light” value in data set [8] is reported as “degrades in ambient light at room temperature storage”.

The values above are taken from US7150876B2, “Methods for stabilizing ingredients within cosmetics, personal care and household products” (Merck Patent GmbH, priority 2004, dated 2006).
